In patent US5391540A, “Substituted pyridine compounds” (Rohm and Haas Company, priority 1993, dated 1995):

Experiments:
Experiment in all cases: Pre-emergent herbicidal activity (Table A)
Format in all cases: in vivo
[1] = test system: Pennsylvania Smartweed; conditions: pre-emergence, Pesw, 11.2 kg/ha, 10-14 days, read-out: herbicidal rating (% inhibition)
How it was run: (§1)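 Seeds or perennial propagules set on compacted topsoil, then covered with soil mixed with a known amount of test compound applied in acetone or water carrier. Ratings assigned on a scale based on percent inhibition of each species.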

[2] = test system: Morningglory; conditions: Ipomoea, pre-emergence, Mogl, 11.2 kg/ha, 10-14 days, read-out: herbicidal rating (% inhibition)
How it was run: as §1

[3] = test system: Rhizome Johnsongrass; conditions: Sorghum halepense, pre-emergence, Rhjg, 11.2 kg/ha, 10-14 days, read-out: herbicidal rating (% inhibition)
How it was run: as §1

[4] = test system: Downy Brome; conditions: Bromus tectorum, pre-emergence, Dobr, 11.2 kg/ha, 10-14 days, read-out: herbicidal rating (% inhibition)
How it was run: as §1

[5] = test system: Canada thistle; conditions: Cirsium arvense, pre-emergence, Cath, 11.2 kg/ha, 10-14 days, read-out: herbicidal rating (% inhibition)
How it was run: as §1

[6] = test system: Quackgrass; conditions: pre-emergence, Rhqg, 11.2 kg/ha, 10-14 days, read-out: herbicidal rating (% inhibition)
How it was run: as §1

[7] = test system: Barnyardgrass; conditions: Echinochloa crus-galli, pre-emergence, Bygr, 11.2 kg/ha, 10-14 days, read-out: herbicidal rating (% inhibition)
How it was run: as §1

[8] = test system: Velvetleaf; conditions: Abutilon theophrasti, pre-emergence, Vele, 11.2 kg/ha, 10-14 days, read-out: herbicidal rating (% inhibition)
How it was run: as §1

[9] = test system: Common Lambsquarters; conditions: Chenopodium album, pre-emergence, Colq, 11.2 kg/ha, 10-14 days, read-out: herbicidal rating (% inhibition)
How it was run: as §1

[10] = test system: Cocklebur; conditions: Xanthium strumarium, pre-emergence, Cobu, 11.2 kg/ha, 10-14 days, read-out: herbicidal rating (% inhibition)
How it was run: as §1

[11] = test system: Yellow Nutsedge; conditions: Cyperus, pre-emergence, Yens, 11.2 kg/ha, 10-14 days, read-out: herbicidal rating (% inhibition)
How it was run: as §1

Row | Structure (SMILES) | inhibition at 11200 g/ha [1] [%] | inhibition at 11200 g/ha [2] [%] | inhibition at 11200 g/ha [3] [%] | inhibition at 11200 g/ha [4] [%] | inhibition at 11200 g/ha [5] [%] | inhibition at 11200 g/ha [6] [%] | inhibition at 11200 g/ha [7] [%] | inhibition at 11200 g/ha [8] [%] | inhibition at 11200 g/ha [9] [%] | inhibition at 11200 g/ha [10] [%] | inhibition at 11200 g/ha [11] [%]
1 | COC(=O)c1c(OC)nc(C(F)(F)F)c(C(=O)OC)c1C1CCC1 [Compound 48, 3,5-pyridinedicarboxylic acid, 4-cyclobuty1-2-methoxy-6-(trifluoromethyl)-, dimethyl ester] | 75 to 100 | 75 to 100 | 75 to 100 | 75 to 100 | 75 to 100 | 75 to 100 | 75 to 100 | 75 to 100 | 75 to 100 | 75 to 100 | 75 to 100
2 | COC(=O)c1c(OC)nc(C(F)(F)F)c(C(=O)N2CCCCC2)c1CC(C)C [Compound 67, 3-pyridinecarboxylic acid, 2-methoxy-4-(2-methylpropyl)-5-(1-piperidinylcarbonyl)-6-(trifluoromethyl)-, methyl ester] | 75 to 100 | 75 to 100 | 0 to 24 | 75 to 100 | 75 to 100 | 75 to 100 | 75 to 100 | 50 to 74 | 75 to 100 | 0 to 24 | 0 to 24
3 | COC(=O)c1c(OC)nc(C(F)(F)F)c(C(=O)N2CC2C)c1CC(C)C (stereo not drawn) [Compound 72] | 25 to 49 | 25 to 49 | 0 to 24 | 75 to 100 | 0 to 24 | 0 to 24 | 75 to 100 | 25 to 49 | 75 to 100 | 0 to 24 | 0 to 24
4 | C=CCOc1nc(C(F)(F)F)c(C(=O)OC)c(CC(C)C)c1C(=O)OCC [Compound 23, 3,5-pyridinecarboxylic acid, 4-(2-methy1-propyl)-2-(2-propenyloxy)-6-(trifluoromethyl)-, 3-ethyl 5-methyl ester, hydrate (1:0.3)] | 75 to 100 | 25 to 49 | 75 to 100 | 75 to 100 | 0 to 24 | 25 to 49 | 75 to 100 | 25 to 49 | 75 to 100 | 0 to 24 | 0 to 24
5 | COC(=O)c1c(OC)nc(C(F)(F)F)c(C(=O)N2CCSC2)c1CC(C)C [Compound 71, 3-pyridinecarboxylic acid, 2-methoxy-4-(2-methylpropyl)-5-(3-thiazolidinylcarbonyl)-6-(trifluoromethyl)-, methyl ester] | 50 to 74 | 50 to 74 | 0 to 24 | 75 to 100 | 25 to 49 | 50 to 74 | 75 to 100 | 25 to 49 | 75 to 100 | 0 to 24 | 0 to 24
6 | COC(=O)c1c(OC)nc(C(F)(F)F)c(C2=NCCO2)c1CC(C)C [Compound 43, 3-pyridinecarboxylic acid, 5-(4,5-dihydro-2-oxazolyl)-2-methoxy-4-(2-methylpropyl)-6-(trifluoromethyl)-, methyl ester] | 75 to 100 | 75 to 100 | 75 to 100 | 75 to 100 | 75 to 100 | 75 to 100 | 75 to 100 | 75 to 100 | 75 to 100 | 50 to 74 | 75 to 100
